Source: patent US20250249025A1, “DRUG DELIVERY CARRIER UTILIZING PROPERTY OF D-ALLOSE BEING UPTAKEN BY CANCER CELL, DRUG DELIVERY METHOD, AND COMPOSITION FOR TREATING RENAL CELL CARCINOMA” (NATIONAL UNIVERSITY CORPORATION KAGAWA UNIVERSITY, priority 2019, published 2025)

Legend:
[1] = tested on: human prostate carcinoma cell line Du145; assay: Rare sugar uptake experiment, sugar content in disrupted cell suspension of Du145; assay type: cell-based
Method: An uptake amount of a rare sugar, which had been added to a medium, into carcinoma cells was analyzed using the cell lines of three types of cancers. As the rare sugar, four kinds, that is, D-allose, D-allulose (D-psicose), L-allulose (L-psicose), and allitol were used, while D-glucose and fructose were used as a monosaccharide which was not a rare sugar.
Cells of each of the cell lines were cultured in RPMI-1640 media and during culturing, six sugars were each added to the resulting media and cultured. After culturing, an amount of each sugar taken up into the cells was analyzed. The medium to which no sugar was added during culturing was used as a control.
Used were human bladder carcinoma cell lines (RT112, 253), and J82), human prostatic carcinoma cell lines (LNCa, Du145, and PC-3), and human renal cell carcinoma cell lines (ACHN, Caki-I, and Caki-II).
After cells were cultured in RPMI-1640 (2000 mg D-glucose/L) media, the above monosaccharides and rare sugars were added to the resulting media, respectively. Described specifically, they were following seven combinations: RPMI-1640 alone (control), RPMI-1640+D-glucose, RPMI-1640+L-allulose, RPMI-1640+D-allulose, RPMI-1640+D-fructose, RPMI-1640+D-allose, and RPMI-1640+D-allitol. The final concentration of the sugar in the medium was adjusted to 10 mM and no sugar was added in the control.
Five-ml portions of a 3.0×10^4 cells/ml cell suspension prepared using RPMI-1640 were seeded in dishes having a diameter of 6 cm (1.5×10^5 cells/dish) and cultured for 24 hours in the RPMI-1640 medium containing 2000 mg/l of D-glucose as a nutrient source. Twenty-four hours later, the media were changed to the culture solutions containing the monosaccharides and rare sugars described above in 2), respectively, followed by culturing for 48 hours.
After culturing for 48 hours, the attached human carcinoma cells were mechanically separated and collected in a Spitz tube together with the culture solution and floating cells. After the supernatant formed by centrifugation (4° C., 1200 rpm, and 5 minutes) was removed to obtain cell pellets alone, 5 ml of a phosphate buffer physiological saline (PBS) was added for the purpose of washing to obtain a cell suspension of the cell pellets. A gain, the resulting cell suspension was centrifuged at 4° C. and 1200 rpm for 5 minutes and the supernatant was removed. To the cell pellets after washing was added 1 ml of pure water to suspend them therein. Ultrasonic disruption (intensity: 40%, 30 seconds) was then performed and the monosaccharide in the disrupted cell suspension was labeled with ABEE, followed by analysis by HPLC. From the area thus obtained, the sugar content in the cells was determined using a calibration curve. With respect to the ketose, two peaks were found after labeling with ABEE so that the sugar content in the cells was determined from the calibration curves of both peaks.

ACHN tumor tissue = assay: Tumor tissue histology (necrosis area, nuclear fission), ACHN xenograft mouse model; assay type: in vivo, mice; conditions: day 35
Method: The experiment of the present example used two human renal cell carcinoma cell lines (Caki-I and ACHN). Each cell was cultured under the wet environment of 37° C. and 5% CO2 by using a RPMI-1640 culture solution (2000 mg D-glucose/L) containing a 10% fetal calf serum, a HEPES buffer, and penicillin-streptomycin.
With respect to a renal cell carcinoma xenograft mouse model, a 1.0×10^5 cells/ml of a cell suspension was obtained by adjusting the cultured cells with a MEM culture solution and then 0.1 ml of the resulting suspension was injected into the femoral subcutaneous tissue of Female athymic nude mice (BALB/c-nu/nu, 6-week-old). After checking that the tumor volume was 200 mm^3 or more one week after the injection, the mice were provided for the experiment thereafter.
The day when the tumor size of the renal cell carcinoma xenograft mouse models became 200 mm^3 or more was called day 0 and the intraperitoneal injection of a D-allose-containing solution was started from day 1. The solution injected is 0.4 mL of physiological saline or a solution obtained by dissolving 100 mg/kg or 400 mg/kg of D-allose in 0.4 mL physiological saline. The resulting solution was intraperitoneally injected into three groups of mice (Control, 100 mg/kg of D-allose, and 400 mg/kg of D-allose) once a day for 5 weeks in total. The body weight of the mice and the long and short diameters of the tumor were measured over time twice a week. It is to be noted that the tumor volume was obtained as a product of long diameter×short diameter×short diameter of the tumor×0.5. On day 35 after the intraperitoneal injection was started, the tumor as well as the liver and kidney were excised from the mice and provided for the experiment performed thereafter.
The tissue of the excised tumor, kidney, and liver was fixed with a 4% paraformaldehyde phosphate buffer, embedded with paraffin, and sliced into a 4-μm thick section. The resulting sliced section was stained with hematoxylin and eosin and evaluated by a medical specialist in pathology. The influence of D-allose on the tumor tissue was evaluated by a necrosis area (%) and an image of the number of nuclear fissions (Cells/HPF). It is to be noted that the necrosis area was measured using an image recording software Nikon NIS—Elements D and figures after the decimal point were omitted. On the other hand, the number of nuclear fissions was obtained as an average of those of three fields of view and figures after the decimal point were also omitted. The anti-tumor effect of D-allose, more specifically, necrosis area and the number of nuclear fissions in the renal cell carcinoma xenograft mouse model are shown in Table 10.

[2] = 100 mg/kg intraperitoneal once a day
[3] = 400 mg/kg intraperitoneal once a day

`O=C[C@H](O)[C@H](O)[C@H](O)[C@H](O)CO` [D-allose] was tested, and the “D-glucose content in cell” value ([1]; Du145, named sugar added to RPMI-1640 at 10 mM, 48 hours, HPLC after ABEE labeling) was 16.2 µg, the “Content in cell of the added sugar” value ([1]; human, 48 h, 10 mM) was 0.0 µg and the Necrosis area (ACHN tumor tissue; [2]) was 49%. It also gave a Nuclear fission (ACHN tumor tissue; [2]) of 1.2 Cells/HPF, a Necrosis area (ACHN tumor tissue; [3]) of 69% and a Nuclear fission (ACHN tumor tissue; [3]) of 0.9 Cells/HPF.
